US20260028354A1, “TETRAHYDRONAPHTHALENE DERIVATIVES AS ESTROGEN RECEPTOR DEGRADERS” (REGENT OF THE UNIVERSITY OF MICHIGAN, priority 2022, published 2026)

Columns and labels:
[1] = Cell growth assay (WST-8) for "B" compounds; type: cell-based; conditions: T47D, T47D cell line; read-out: Cell growth Inhibition in T47D cell line IC50
In short: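 Cells seeded at 1500/well overnight, then exposed to compounds for 4 days. 10% WST-8 added for 2.5 h at 37 °C and absorbance read at 450 nm. Growth given as absorbance relative to vehicle control, from three repeats.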

ER = ER (Homo sapiens (Human), UniProt P03372); assay: In-cell western blot analysis of ER for "B" compounds; type: cell-based; conditions: 16 hours, read-out: ICW DC50
Chain of ER (P03372 whole entry): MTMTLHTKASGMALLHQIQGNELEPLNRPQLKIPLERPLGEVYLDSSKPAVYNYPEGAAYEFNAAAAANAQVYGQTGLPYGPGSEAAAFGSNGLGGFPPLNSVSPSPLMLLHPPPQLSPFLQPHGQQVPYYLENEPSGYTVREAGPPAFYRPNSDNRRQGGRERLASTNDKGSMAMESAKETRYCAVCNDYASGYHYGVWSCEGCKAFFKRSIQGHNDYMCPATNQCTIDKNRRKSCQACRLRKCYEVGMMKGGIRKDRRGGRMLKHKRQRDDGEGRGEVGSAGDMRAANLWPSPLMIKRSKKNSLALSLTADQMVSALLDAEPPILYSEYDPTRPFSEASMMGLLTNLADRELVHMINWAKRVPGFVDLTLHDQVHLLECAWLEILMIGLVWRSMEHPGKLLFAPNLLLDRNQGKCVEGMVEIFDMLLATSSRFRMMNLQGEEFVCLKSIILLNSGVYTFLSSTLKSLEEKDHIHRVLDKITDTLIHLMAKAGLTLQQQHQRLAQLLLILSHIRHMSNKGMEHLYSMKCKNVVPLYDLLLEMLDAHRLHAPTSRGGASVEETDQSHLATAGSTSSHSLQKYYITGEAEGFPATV
Protocol: R^T 2h, gentle shaking. Negative control: cells plus secondary antibodies (no primary antibodies); e, wash x 4 with PBS+0.05-0.1% Tween 20, gentel shaking; f, anti-rabbit-680 and anti-mouse-800 (both 1:1000 in LiCor block+0.05% Tween20, R^T 1h, gentle shaking, no light. LI-COR: 0.2% to reduce background; g, wash×4 with PBS+0.05% Tween 20, gental shaking; h, add 100 μL or 25 μL of PBS to each well and read on CLX plate reader. The relative ER percentage in treated cells were obtained by comparing the values of treated wells to those in untreated and DMSO-treated wells as 100%.

O=C1CCC(N2Cc3cc4c(cc3C2=O)OC[C@@H]2CN(C(=O)[C@H]3CC[C@@H](CN5CC(Nc6ccc([C@@H]7c8ccc(O)cc8CC[C@@H]7c7ccccc7)cc6)C5)CC3)CCN42)C(=O)N1 (stereo partly drawn) [Compound B140, 3-((S)-3-((1R,4S)-4-((3-((4-((1R,2S)-6-hydroxy-2-phenyl-1,2,3,4-tetrahydronaphthalen-1-yl)phenyl)amino)azetidin-1-yl)methyl)cyclohexane-1-carbonyl)-8-oxo-1,2,3,4,4a,5,8,10-octahydro-9H-pyrazino[1′,2′:4,5][1,4]oxazino[2,3-f]isoindol-9-yl)piperidine-2,6-dione]
IC50 [1]: < 1 nM
DC50 (ER): < 10 nM

O=C1CCC(N2Cc3cc4c(cc3C2=O)OC[C@@H]2CN(C(=O)[C@H]3CC[C@H](CN5CCN(c6ccc([C@@H]7c8ccc(O)cc8CC[C@@H]7c7ccccc7)cc6)CC5)CC3)CCN42)C(=O)N1 (stereo partly drawn) [Compound B141, 3-((S)-3-((1R,4S)-4-((4-(4-((1R,2S)-6-hydroxy-2-phenyl-1,2,3,4-tetrahydronaphthalen-1-yl)phenyl)piperazin-1-yl)methyl)cyclohexane-1-carbonyl)-8-oxo-1,2,3,4,4a,5,8,10-octahydro-9H-pyrazino[1′,2′:4,5][1,4]oxazino[2,3-f]isoindol-9-yl)piperidine-2,6-dione]
IC50 [1]: < 1 nM
DC50 (ER): < 10 nM

O=C1CCC(N2Cc3cc4c(cc3C2=O)OC[C@@H]2CN(C(=O)CN3CC5(CCN(c6ccc([C@@H]7c8ccc(O)cc8CC[C@@H]7c7ccccc7)cc6)CC5)C3)CCN42)C(=O)N1 (stereo partly drawn) [Compound B142, 3-((S)-3-(2-(7-(4-((1R,2S)-6-hydroxy-2-phenyl-1,2,3,4-tetrahydronaphthalen-1-yl)phenyl)-2,7-diazaspiro[3.5]nonan-2-yl)acetyl)-8-oxo-1,2,3,4,4a,5,8,10-octahydro-9H-pyrazino[1′,2′: 4,5][1,4]oxazino[2,3-f]isoindol-9-yl)piperidine-2,6-dione]
IC50 [1]: < 1 nM
DC50 (ER): < 10 nM

O=C1CCC(N2Cc3cc4c(cc3C2=O)OC[C@@H]2CN(CC(=O)N3CC5(CCN(c6ccc([C@@H]7c8ccc(O)cc8CC[C@@H]7c7ccccc7)cc6)CC5)C3)CCN42)C(=O)N1 (stereo partly drawn) [Compound B143, 3-((S)-3-(2-(7-(4-((1R,2S)-6-hydroxy-2-phenyl-1,2,3,4-tetrahydronaphthalen-1-yl)phenyl)-2,7-diazaspiro[3.5]nonan-2-yl)-2-oxoethyl)-8-oxo-1,2,3,4,4a,5,8,10-octahydro-9H-pyrazino[1′,2′: 4,5][1,4]oxazino[2,3-f]isoindol-9-yl)piperidine-2,6-dione]
IC50 [1]: < 1 nM
DC50 (ER): < 10 nM

O=C1CCC(N2Cc3cc4c(cc3C2=O)OC[C@@H]2CN(C(=O)CN3CCN(c5ccc([C@@H]6c7ccc(O)cc7CC[C@@H]6c6ccccc6)cc5)CC3)CCN42)C(=O)N1 (stereo partly drawn) [Compound B144, 3-((S)-3-(2-(4-(4-((1R,2S)-6-hydroxy-2-phenyl-1,2,3,4-tetrahydronaphthalen-1-yl)phenyl)piperazin-1-yl)acetyl)-8-oxo-1,2,3,4,4a,5,8,10-octahydro-9H-pyrazino[1′,2′:4,5][1,4]oxazino[2,3-f]isoindol-9-yl)piperidine-2,6-dione]
IC50 [1]: < 1 nM
DC50 (ER): 10 to 100 nM

O=C1CCC(N2Cc3cc4c(cc3C2=O)OC[C@@H]2CN(CC(=O)N3CCN(c5ccc([C@@H]6c7ccc(O)cc7CC[C@@H]6c6ccccc6)cc5)CC3)CCN42)C(=O)N1 (stereo partly drawn) [Compound B145, 3-((S)-3-(2-(4-(4-((1R,2S)-6-hydroxy-2-phenyl-1,2,3,4-tetrahydronaphthalen-1-yl)phenyl)piperazin-1-yl)-2-oxoethyl)-8-oxo-1,2,3,4,4a,5,8,10-octahydro-9H-pyrazino[1′,2′:4,5][1,4]oxazino[2,3-f]isoindol-9-yl)piperidine-2,6-dione]
IC50 [1]: < 1 nM
DC50 (ER): 10 to 100 nM

O=C1CCC(N2Cc3cc4c(cc3C2=O)OC[C@@H]2CN(C(=O)CN3CCC5(CC3)CCN(c3ccc([C@@H]6c7ccc(O)cc7CC[C@@H]6c6ccccc6)cc3)CC5)CCN42)C(=O)N1 (stereo partly drawn) [Compound B146, 3-((S)-3-(2-(9-(4-((1R,2S)-6-hydroxy-2-phenyl-1,2,3,4-tetrahydronaphthalen-1-yl)phenyl)-3,9-diazaspiro[5.5]undecan-3-yl)acetyl)-8-oxo-1,2,3,4,4a,5,8,10-octahydro-9H-pyrazino[1′,2′:4,5][1,4]oxazino[2,3-f]isoindol-9-yl)piperidine-2,6-dione]
IC50 [1]: < 1 nM
DC50 (ER): < 10 nM

O=C1CCC(N2Cc3cc4c(cc3C2=O)OC[C@@H]2CN(CC(=O)N3CCC5(CC3)CCN(c3ccc([C@@H]6c7ccc(O)cc7CC[C@@H]6c6ccccc6)cc3)CC5)CCN42)C(=O)N1 (stereo partly drawn) [Compound B147, 3-((S)-3-(2-(9-(4-((1R,2S)-6-hydroxy-2-phenyl-1,2,3,4-tetrahydronaphthalen-1-yl)phenyl)-3,9-diazaspiro[5.5]undecan-3-yl)-2-oxoethyl)-8-oxo-1,2,3,4,4a,5,8,10-octahydro-9H-pyrazino[1′,2′:4,5][1,4]oxazino[2,3-f]isoindol-9-yl)piperidine-2,6-dione]
IC50 [1]: 1 to 10 nM
DC50 (ER): 10 to 100 nM

O=C1CCC(N2Cc3cc4c(cc3C2=O)OC[C@@H]2CN(CC(=O)N3CCC5(CC3)CCN(c3ccc([C@@H]6c7ccc(O)cc7CC[C@@H]6c6ccccc6)cn3)CC5)CCN42)C(=O)N1 (stereo partly drawn) [Compound B148, 3-((S)-3-(2-(9-(5-(cis-6-hydroxy-2-phenyl-1,2,3,4-tetrahydronaphthalen-1-yl)pyridin-2-yl)-3,9-diazaspiro[5.5]undecan-3-yl)-2-oxoethyl)-8-oxo-1,2,3,4,4a,5,8,10-octahydro-9H-pyrazino[1′,2′: 4,5][1,4]oxazino[2,3-f]isoindol-9-yl)piperidine-2,6-dione]
IC50 [1]: 1 to 10 nM
DC50 (ER): 10 to 100 nM

O=C1CCC(N2Cc3cc4c(cc3C2=O)OC[C@@H]2CN(CC(=O)N3CC(Oc5ccc([C@@H]6c7ccc(O)cc7CC[C@@H]6c6ccccc6)cc5)C3)CCN42)C(=O)N1 (stereo partly drawn) [Compound B150, 3-((S)-3-(2-(3-(4-((1R,2S)-6-hydroxy-2-phenyl-1,2,3,4-tetrahydronaphthalen-1-yl)phenoxy)azetidin-1-yl)-2-oxoethyl)-8-oxo-1,2,3,4,4a,5,8,10-octahydro-9H-pyrazino[1′,2′:4,5][1,4]oxazino[2,3-f]isoindol-9-yl)piperidine-2,6-dione]
IC50 [1]: < 1 nM
DC50 (ER): < 10 nM

O=C1CCC(N2Cc3cc4c(cc3C2=O)OC[C@@H]2CN(C(=O)CN3CC(Oc5ccc([C@@H]6c7ccc(O)cc7CC[C@@H]6c6ccccc6)cc5)C3)CCN42)C(=O)N1 (stereo partly drawn) [Compound B151, 3-((S)-3-(2-(3-(4-((1R,2S)-6-hydroxy-2-phenyl-1,2,3,4-tetrahydronaphthalen-1-yl)phenoxy)azetidin-1-yl)acetyl)-8-oxo-1,2,3,4,4a,5,8,10-octahydro-9H-pyrazino[1′,2′:4,5][1,4]oxazino[2,3-f]isoindol-9-yl)piperidine-2,6-dione]
IC50 [1]: < 1 nM
DC50 (ER): < 10 nM

O=C1CCC(N2Cc3cc4c(cc3C2=O)OC[C@@H]2CN(CC(=O)N3CCC5(C3)CN(c3ccc([C@@H]6c7ccc(O)cc7CC[C@@H]6c6ccccc6)cc3)C5)CCN42)C(=O)N1 (stereo partly drawn) [Compound B152, 3-((S)-3-(2-(2-(4-((1R,2S)-6-hydroxy-2-phenyl-1,2,3,4-tetrahydronaphthalen-1-yl)phenyl)-2,6-diazaspiro[3.4]octan-6-yl)-2-oxoethyl)-8-oxo-1,2,3,4,4a,5,8,10-octahydro-9H-pyrazino[1′,2′:4,5][1,4]oxazino[2,3-f]isoindol-9-yl)piperidine-2,6-dione]
IC50 [1]: < 1 nM
DC50 (ER): < 10 nM

O=C1CCC(N2Cc3cc4c(cc3C2=O)OC[C@@H]2CN(CC(=O)N3CC5(CC(Nc6ccc([C@@H]7c8ccc(O)cc8CC[C@@H]7c7ccccc7)cc6)C5)C3)CCN42)C(=O)N1 (stereo partly drawn) [Compound B153, 3-((S)-3-(2-(6-((4-((1R,2S)-6-hydroxy-2-phenyl-1,2,3,4-tetrahydronaphthalen-1-yl)phenyl)amino)-2-azaspiro[3.3]heptan-2-yl)-2-oxoethyl)-8-oxo-1,2,3,4,4a,5,8,10-octahydro-9H-pyrazino[1′,2′:4,5][1,4]oxazino[2,3-f]isoindol-9-yl)piperidine-2,6-dione]
IC50 [1]: < 1 nM
DC50 (ER): < 10 nM

O=C1CCC(N2Cc3cc4c(cc3C2=O)OC[C@@H]2CN(C(=O)CN3CCC5(C3)CN(c3ccc([C@@H]6c7ccc(O)cc7CC[C@@H]6c6ccccc6)cc3)C5)CCN42)C(=O)N1 (stereo partly drawn) [Compound B154, 3-((S)-3-(2-(2-(4-((1R,2S)-6-hydroxy-2-phenyl-1,2,3,4-tetrahydronaphthalen-1-yl)phenyl)-2,6-diazaspiro[3.4]octan-6-yl)acetyl)-8-oxo-1,2,3,4,4a,5,8,10-octahydro-9H-pyrazino[1′,2′:4,5][1,4]oxazino[2,3-f]isoindol-9-yl)piperidine-2,6-dione]
IC50 [1]: < 1 nM
DC50 (ER): < 10 nM

O=C1CCC(N2Cc3cc4c(cc3C2=O)OC[C@@H]2CN(C(=O)CN3CC5(CC(Nc6ccc([C@@H]7c8ccc(O)cc8CC[C@@H]7c7ccccc7)cc6)C5)C3)CCN42)C(=O)N1 (stereo partly drawn) [Compound B155, 3-((S)-3-(2-(6-((4-((1R,2S)-6-hydroxy-2-phenyl-1,2,3,4-tetrahydronaphthalen-1-yl)phenyl)amino)-2-azaspiro[3.3]heptan-2-yl)acetyl)-8-oxo-1,2,3,4,4a,5,8,10-octahydro-9H-pyrazino[1′,2′:4,5][1,4]oxazino[2,3-f]isoindol-9-yl)piperidine-2,6-dione]
IC50 [1]: < 1 nM
DC50 (ER): < 10 nM
